Experimental data reported in patent publication US11857579B2, “Composition for promoting the secretion of FGF21” (MORINAGA MILK INDUSTRY CO., LTD., priority 2018, dated 2024).

Tests used:
[1] = system: FGF21 gene in liver; assay: Expression of FGF21 gene in liver by RT-PCR after oral administration to neonatal mice; format: in vivo, C57BL/6J male mice
From the text: (§1) Bacterial cell powder (2.4×10^11 cfu/g) of Bifidobacterium breve M-16V (NITE BP-02622) triturated with starch was suspended in physiological saline to prepare a Bifidobacterium liquid of 2.5×10^9 cfu/ml.
(§2) Lactulose (manufactured by Morinaga Milk Industry Co., Ltd.), raffinose (product name: Nitten Rraffinose, manufactured by Nippon Beet Sugar Manufacturing Co., Ltd.), and galactooligosaccharide were mixed at a ratio by weight of 1:1:1 and diluted in distilled water to prepare an oligosaccharide stock solution having a total final concentration of 250 mg/ml. The galactooligosaccharide is obtained by removing monosaccharides and disaccharides from a commercial product (product name: Oligomate 55N, manufactured by Yakult Pharmaceutical Industry Co., Ltd.) and contains about 65% by weight of Galβ1-4Galβ1-4Glc (4′-galactosyl lactose) and about 15% by weight of Galβ1-6Galβ1-4Glc (6′-galactosyl lactose). […]
(§3) Each animal was subjected to anatomy at 21 days old and the serum and liver were taken out of the body. The FGF21 concentration in the serum and the expression of FGF21 gene in the liver were determined. The FGF21 concentration in the serum was measured with an ELISA kit (manufactured by R&D Systems). The expression of FGF21 gene in the liver was measured by RT-PCR. […]

[2] = system: FGF21; assay: FGF21 concentration in serum by ELISA after oral administration to neonatal mice; format: in vivo, C57BL/6J male mice; conditions: 100 μl once a day during 6 to 20 days old, serum taken at 21 days old
From the text: as §1, §2, §3

In the case of “Bifidobacterium breve M-16V (NITE BP-02622) [Group B]”, the “Expression of FGF21 gene in the liver compared with group A and group C” value ([1]; at 21 days old, versus group A (vehicle) and group C (oligosaccharide)) is reported as “significantly higher”, the “Expression of FGF21 gene in liver (values relative to the value of Group A which was taken as 100.0), Average” value ([1]; neonatal mice, 100 μl once a day during 6 to 20 days old, liver taken at 21 days old, RT-PCR, Group A (vehicle) = 100.0) is reported as 197.7 and the “FGF21 Concentration in serum, Average” value [2] is reported as 397.3 pg/mL.
